Measurements taken from the NIST ThermoML archive (doi:10.1016/j.fluid.2018.05.028).

Assay: xn = mol fraction of the nth substance listed
Settings: 101 kPa, Liquid; for viscosity: Concentric cylinders viscometry; for speed of sound: Single path-length method; for mass density: Vibrating tube method

CCCCCCCC/C=C\CCCCCCCC(=O)OCC [ethyl (Z)-9-octadeceneoate] + CCCO
Settings	mass density [kg/m3]	speed of sound [m/s]	viscosity [mPa·s]
293.15 K, x2 = 0	868.91	1394.2	6.413
293.15 K, x2 = 0.1	867.29	1389.8	6.028
293.15 K, x2 = 0.2	865.42	1384.1	5.695
293.15 K, x2 = 0.3	863.2	1377.6	5.368
293.15 K, x2 = 0.4	860.5	1370	5.016
293.15 K, x2 = 0.5	857.13	1360.7	4.643
293.15 K, x2 = 0.6	852.82	1349.2	4.238
293.15 K, x2 = 0.7	846.96	1333.8	3.8
293.15 K, x2 = 0.8	838.72	1312.4	3.299
293.15 K, x2 = 0.9	826.05	1279	2.748
298.15 K, x2 = 0	865.27	1376.2	5.653
298.15 K, x2 = 0.1	863.62	1371.8	5.318
298.15 K, x2 = 0.2	861.71	1366.1	5.028
298.15 K, x2 = 0.3	859.46	1359.7	4.736
298.15 K, x2 = 0.4	856.73	1352	4.427
298.15 K, x2 = 0.5	853.33	1342.7	4.102
298.15 K, x2 = 0.6	848.98	1331.2	3.742
298.15 K, x2 = 0.7	843.08	1315.9	3.357
298.15 K, x2 = 0.8	834.8	1294.6	2.93
298.15 K, x2 = 0.9	822.08	1261.3	2.455
303.15 K, x2 = 0	861.63	1358.4	4.986
303.15 K, x2 = 0.1	859.95	1353.9	4.693
303.15 K, x2 = 0.2	858.01	1348.3	4.435
303.15 K, x2 = 0.3	855.72	1341.8	4.183
303.15 K, x2 = 0.4	852.96	1334.2	3.915
303.15 K, x2 = 0.5	849.52	1324.8	3.629
303.15 K, x2 = 0.6	845.14	1313.4	3.312
303.15 K, x2 = 0.7	839.19	1298.1	2.98
303.15 K, x2 = 0.8	830.87	1276.9	2.603
303.15 K, x2 = 0.9	818.09	1243.8	2.186
308.15 K, x2 = 0	858.01	1340.8	4.424
308.15 K, x2 = 0.1	856.28	1336.3	4.167
308.15 K, x2 = 0.2	854.3	1330.6	3.94
308.15 K, x2 = 0.3	851.98	1324.2	3.719
308.15 K, x2 = 0.4	849.18	1316.5	3.482
308.15 K, x2 = 0.5	845.71	1307.2	3.23
308.15 K, x2 = 0.6	841.28	1295.7	2.956
308.15 K, x2 = 0.7	835.29	1280.4	2.657
308.15 K, x2 = 0.8	826.92	1259.4	2.324
308.15 K, x2 = 0.9	814.08	1226.5	1.955
313.15 K, x2 = 0	854.39	1323.3	3.919
313.15 K, x2 = 0.1	852.62	1318.8	3.697
313.15 K, x2 = 0.2	850.61	1313.1	3.497
313.15 K, x2 = 0.3	848.24	1306.6	3.305
313.15 K, x2 = 0.4	845.4	1299	3.1
313.15 K, x2 = 0.5	841.89	1289.6	2.882
313.15 K, x2 = 0.6	837.41	1278.2	2.645
313.15 K, x2 = 0.7	831.37	1262.9	2.384
313.15 K, x2 = 0.8	822.94	1241.9	2.09
313.15 K, x2 = 0.9	810.04	1209.2	1.76
318.15 K, x2 = 0	–	1306	3.554
318.15 K, x2 = 0.1	–	1301.4	3.354
318.15 K, x2 = 0.2	–	1295.7	3.171
318.15 K, x2 = 0.3	–	1289.2	2.996
318.15 K, x2 = 0.4	–	1281.6	2.808
318.15 K, x2 = 0.5	–	–	2.606
318.15 K, x2 = 0.6	–	–	2.388
318.15 K, x2 = 0.7	–	–	2.147
318.15 K, x2 = 0.8	–	–	1.882
318.15 K, x2 = 0.9	–	–	1.584
